The source of these data is ChEMBL document CHEMBL1201862, “PubChem BioAssay data set” (2004).

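Briefly, cells in 96-well plates were exposed to five compound concentrations for 48 h, and endpoints were estimated by linear interpolation. GI50 = concentration required for 50% inhibition of growth.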 Calls of active or inactive are those of the source. No stated cut-off is given here; in the data, active = GI50 up to about 1.1 µM and inactive = higher. Bounds are passed on as bounds.

Some test systems named below: A498; CCRF-CEM; DU-145; Hs-578T; K562; KM12; M14; MDA-MB-435; MDA-N; NCI-H460; PC-3; RXF 393; SF-268; SK-MEL-2; SK-MEL-5; SK-OV-3; SW-620; TK-10; RPMI-8226.
Assay in all cases: NCI tumour cell line growth inhibition, 48 h

Consider `CC(C)C(C/C=C1\CC(CO)(COC(=O)C(C)(C)C)OC1=O)C(C)C` (stereo not drawn), for which the GI50 was 14.1 µM (inactive) in the test with A498; 10.6 µM (inactive) with CCRF-CEM; 4.65 µM (inactive) with DU-145; 2.5 µM (inactive) in the test on Hs-578T; 0.942 µM (active) with K562; 12.7 µM (inactive) with KM12. Also, the GI50 was 13.9 µM (inactive) in the test on M14; 11.9 µM (inactive) in the test with MDA-MB-435; 4.97 µM (inactive) in the test with MDA-N; 5.57 µM (inactive) in the test with NCI-H460; 5.05 µM (inactive) in the test on PC-3; 15.6 µM (inactive) in the test with RXF 393. Further, the GI50 with SF-268 was 13.2 µM (inactive); in the test on SK-MEL-2, 20.6 µM (inactive); in the test on SK-MEL-5, 3.72 µM (inactive); with SK-OV-3, 15.1 µM (inactive); with SW-620, 4.48 µM (inactive); in the test with TK-10, 7.23 µM (inactive).
Regarding `CCN(CC)Cc1cc(Nc2c3ccccc3nc3c2[nH]c2ccccc23)cc(CN(CC)CC)c1O`, the GI50 with A498 was 1.53 µM (inactive); with DU-145, 1.32 µM (inactive); with Hs-578T, 2.15 µM (inactive); in the test on K562, 0.631 µM (active); with KM12, 0.552 µM (active); in the test on M14, 0.303 µM (active). The GI50 was 0.701 µM (active) in the test with MDA-MB-435; 0.815 µM (active) with MDA-N; 0.294 µM (active) in the test with NCI-H460; 0.64 µM (active) with PC-3; 0.28 µM (active) in the test with RXF 393; 0.813 µM (active) in the test with SF-268. Also, the GI50 with SK-MEL-2 was 1.62 µM (inactive); in the test on SK-MEL-5, 1.6 µM (inactive); in the test with SK-OV-3, 3.25 µM (inactive); in the test with SW-620, 0.266 µM (active); in the test on TK-10, 2.42 µM (inactive).
With `C#CC[C@@H]1C(=O)N(Cc2ccc(OC)cc2)[C@@H](C(C)C)C(=O)N1Cc1ccc(OC)cc1`, the GI50 in the test on A498 was 36 µM (inactive); in the test on CCRF-CEM, 0.458 µM (active); in the test with DU-145 it was 29.5 µM (inactive); in the test on Hs-578T, > 100 µM (inactive); in the test with K562 it was 32.4 µM (inactive); in the test with KM12, 35.8 µM (inactive). The GI50 was 36.5 µM (inactive) in the test on M14; 36.1 µM (inactive) with MDA-MB-435; 22.9 µM (inactive) in the test with MDA-N; 30.7 µM (inactive) in the test with NCI-H460; 24 µM (inactive) with PC-3; 2.79 µM (inactive) in the test with RXF 393. Also, the GI50 is 82.2 µM (inactive) in the test on SF-268; 19.9 µM (inactive) in the test with SK-MEL-2; 15.6 µM (inactive) in the test on SK-MEL-5; > 100 µM (inactive) with SK-OV-3; 40.5 µM (inactive) in the test with SW-620; 49.9 µM (inactive) in the test with TK-10.
As to `C=C(CC)C[C@@H]1C[C@]2(C(=O)OC)c3[nH]c4ccccc4c3CCN2C1=O`, the GI50 was 17.6 µM (inactive) in the test on A498; 30.4 µM (inactive) with DU-145; 14.2 µM (inactive) with Hs-578T; 18.9 µM (inactive) in the test on K562; 24.4 µM (inactive) with KM12; 15.6 µM (inactive) in the test on M14. For the same molecule, the GI50 is 19.3 µM (inactive) in the test with MDA-MB-435; 17.4 µM (inactive) in the test on MDA-N; 21.1 µM (inactive) with NCI-H460; 16.7 µM (inactive) in the test on PC-3; 12.2 µM (inactive) in the test on RXF 393; 21.6 µM (inactive) in the test with SF-268. Besides, the GI50 in the test on SK-MEL-2 was 17.1 µM (inactive); in the test on SK-MEL-5 it was 17.1 µM (inactive); in the test with SK-OV-3, 21 µM (inactive); with SW-620 it was 16.4 µM (inactive); in the test with TK-10, 35.3 µM (inactive).
For `Cc1nc2ccc(F)cc2c2c1CCN2c1ccc(Cl)cc1`, the GI50 is 20.9 µM (inactive) with A498; 5.82 µM (inactive) in the test with CCRF-CEM; 29.4 µM (inactive) in the test with DU-145; 27.6 µM (inactive) in the test with Hs-578T; 2.26 µM (inactive) with K562; 8.85 µM (inactive) with M14. Besides, the GI50 in the test with MDA-MB-435 was 6.64 µM (inactive); in the test with MDA-N, 4.25 µM (inactive); in the test with NCI-H460, 7.38 µM (inactive); in the test with PC-3, 3.85 µM (inactive); with RXF 393, 18 µM (inactive); in the test with SF-268, 30.8 µM (inactive). Also, the GI50 with SK-MEL-2 was 18.6 µM (inactive); with SK-MEL-5 it was 3.56 µM (inactive); in the test with SK-OV-3 it was 29 µM (inactive); with SW-620, 11.3 µM (inactive); in the test on TK-10, 9.4 µM (inactive).
On to `COC(=O)c1c(C)cccc1/C=C1/Cc2c(C)cccc2C1=O`, for which the GI50 in the test with A498 is 88.9 µM (inactive); in the test with DU-145 it was > 100 µM (inactive); in the test with Hs-578T it was 32.6 µM (inactive); in the test with KM12 it was > 100 µM (inactive); in the test on MDA-MB-435, > 100 µM (inactive); in the test on MDA-N, > 100 µM (inactive). Further, the GI50 in the test with NCI-H460 is 67.9 µM (inactive); in the test with PC-3, > 100 µM (inactive); in the test with RPMI-8226 it was 3.44 µM (inactive); in the test on RXF 393, 25.4 µM (inactive); with SF-268 it was > 100 µM (inactive); with SK-MEL-5 it was 9.93 µM (inactive). The GI50 in the test with SK-OV-3, with SW-620 and in the test with TK-10 was > 100 µM (inactive) each time.
In the case of `S=c1nc2[nH]c3ccc(Br)cc3c2n[nH]1`, the GI50 in the test with A498 was > 100 µM (inactive); in the test with DU-145, 85.3 µM (inactive); in the test on Hs-578T, 28.9 µM (inactive); in the test with K562, 47.8 µM (inactive); in the test with KM12, 29.2 µM (inactive); in the test on M14 it was 51.5 µM (inactive). Moreover, the GI50 with MDA-MB-435 is 20.7 µM (inactive); in the test with MDA-N it was 16.7 µM (inactive); in the test on NCI-H460 it was 63.1 µM (inactive); with PC-3, 43.1 µM (inactive); with RPMI-8226, 37.1 µM (inactive); in the test on RXF 393, > 100 µM (inactive). For the same molecule, the GI50 is 27.9 µM (inactive) with SF-268; 25.6 µM (inactive) in the test with SK-MEL-2; 36.4 µM (inactive) in the test on SK-MEL-5; > 100 µM (inactive) in the test with SK-OV-3; 53 µM (inactive) in the test with SW-620; > 100 µM (inactive) in the test with TK-10.
`NC(=O)CCC(NC(=O)c1cccc2c(=O)c3ccccc3[nH]c12)C(=O)O` (stereo not drawn): the GI50 in the test with A498, in the test with DU-145, in the test on Hs-578T, with K562, with KM12 and with M14 was > 100 µM (inactive) throughout. The GI50 with MDA-MB-435, with MDA-N, in the test with PC-3, with RPMI-8226, in the test with SF-268 and with SK-MEL-2 was > 100 µM (inactive) throughout. In addition, the GI50 with SK-MEL-5, in the test with SK-OV-3, in the test with SW-620 and with TK-10 was > 100 µM (inactive) each time.
As for `O=C1CCCCC/C1=C\c1ccc(Cl)cc1`, the GI50 with A498 was 33 µM (inactive); in the test with CCRF-CEM, 22.6 µM (inactive); in the test with DU-145, 39.2 µM (inactive); in the test with Hs-578T it was 20.8 µM (inactive); in the test with KM12, 17.7 µM (inactive); with M14, 34.4 µM (inactive). In addition, the GI50 is 20.6 µM (inactive) in the test on MDA-MB-435; 28.6 µM (inactive) in the test on MDA-N; 35.2 µM (inactive) with NCI-H460; 19.9 µM (inactive) in the test on PC-3; 25.4 µM (inactive) with RPMI-8226; 14.5 µM (inactive) with SF-268. For the same molecule, the GI50 is 34.8 µM (inactive) in the test on SK-MEL-2; 13.9 µM (inactive) in the test with SK-MEL-5; 60 µM (inactive) in the test with SK-OV-3; 24.7 µM (inactive) in the test on SW-620; 28.1 µM (inactive) in the test with TK-10.
